The source of these data is PMC9399058, “Preclinical evaluation of FAP-2286 for fibroblast activation protein targeted radionuclide imaging and therapy” (European Journal of Nuclear Medicine and Molecular Imaging, 2022).

Where two headings read alike, the source gives them in different places.

The test system of data set [1] is HEK-FAP xenografts. In words: SPECT/CT biodistribution and tumor dosimetry of 177Lu-labeled tracers in HEK-FAP tumor-bearing mice. Conditions: 177Lu-labeled, HEK-FAP tumors. Format: in vivo, mouse. As to the method: (§1) HEK-FAP cell line was generated using the vector pTAR to insert FAP complementary DNA by recombinase-mediated cassette exchange into the pre-tagged HEK293 cells (InSCREENeX). For in vivo HEK-FAP studies, female nude or SCID beige mice (Charles River Laboratories) were subcutaneously implanted with 5 × 10^6 HEK-FAP cells in 150 µL serum-free media:Matrigel (1:1) (Corning). For the patient-derived xenograft (PDX) efficacy study, female NMRI nu/nu mice (Janvier Labs) were subcutaneously implanted with Sarc4809 fragments (Experimental Pharmacology & Oncology Berlin-Buch). All animal experiments were carried out under licenses approved by the respective authorities and in compliance with guidelines on animal welfare.
(§2) Thirty megabecquerels (30 MBq/nmol) ^111In-FAP-2286 (n = 9) or ^111In-FAPI-04 (n = 6) was injected intravenously (IV) into HEK-FAP tumor-bearing mice and the distribution of the radiotracers was assessed using the NanoSPECT/computed tomography (CT) system (Mediso). For PET imaging, 10 MBq of ^68Ga-FAP-2286 or ^68Ga-FAPI-46 (10 MBq/nmol) was given IV into HEK-FAP tumor-bearing mice (n = 3) followed by PET/CT analysis using the nanoScan PET/CT system (Mediso). For SPECT imaging of ^177Lu-labeled FAP-2286 or ^177Lu-labeled FAPI-46, 30 MBq was administered IV (30 MBq/nmol; n = 3) and the distribution of the radiotracers was assessed using the nanoScan SPECT/CT system (Mediso).
(§3) The animal studies were conducted in different laboratories. ^111In-Imaging and efficacy studies using the HEK-FAP model and different doses of ^177Lu-FAP-2286 as well as the Sarc4809 PDX efficacy study took place at Berlin Experimental Imaging Center (BERIC, Germany). The Sarc4809 model was originally derived from a primary lesion of undifferentiated pleomorphic sarcoma. These studies were performed in either female swiss nude (Charles River Laboratories, France – ^111In-Imaging), NMRI nude (Janvier Labs, France – PDX efficacy study) or SCID beige mice (Charles River Laboratories, Germany - ^111In-Imaging). ^68Ga-Imaging and comparative studies with ^177Lu labeled FAP-2286 and FAPI-46 were performed at Minerva Imaging ApS, Denmark using female athymic nude mice (Charles River Laboratories, Germany). For all experiments animals were ordered with an age of approximately 6 weeks. Animals were allowed an acclimatization period of at least one week prior to inoculation. Animals were housed in an animal room with 12 hours light and 12 hours darkness with free access to food and water. A maximum number of 5 animals were housed in the same cage, cages were equipped with nesting material and plastic or paper houses for hiding. Each cage was labeled with study ID, group and animal numbers and test compound. For efficacy studies animals were randomized according to tumor size. Animals were checked daily for any signs of illness or abnormal behavior. Main humane endpoints were defined as tumor volumes > 1500 mm^3, tumor burden > 10% of animal weight, body weight loss >15% and tumor ulceration. When reaching one of these criteria the animal was sacrificed by cervical dislocation. All animal experiments were approved either by the Regional Office for Health and Social Affairs Berlin (LAGeSo), Germany or the National Animal Experiments Inspectorate under the Ministry of Environment and Food of Denmark.
(§4) Imaging and image analysis were performed as described. During the scan, mice were kept under isoflurane anesthesia, and body temperature was maintained under warm air. The following acquisition parameters were used for the respective imaging modality.
(§5) For quantification, VivoQuant (InviCRO) was used to draw regions of interest (ROIs) in relevant tissues, with a ROI drawn over the left ventricle of the heart to serve as blood pool surrogate. […]

Data set [2] in a line: Plasma stability assay, mouse plasma. Format: in vitro ADME. As to conditions: 24 h at 37 °C. The protocol:
FAP-2286 was incubated in human or mouse plasma at 37 °C for 24 h. Compound concentration was measured using HPLC–MS/MS (Agilent Technologies) and percent concentration remaining was calculated.
FAP-2286 was incubated in 50 µL of plasma with 3.8% sodium citrate as anticoagulant at a concentration of 10 µM. After 1, 2, 4, and 24 hours incubation at 37°C a suitable internal standard was added. FAP-2286 with plasma proteins were precipitated using 150 µL of a precipitation agent consisting of 77% 0.1 M zinc sulfate solution and 23% acetonitrile. Precipitation was carried out on ice for 30 minutes. […]
A nonincubated plasma sample spiked with 10 µM sample concentration was prepared in the same way and was used as the reference. […] The samples were analyzed using an Agilent 1290 UHPLC system coupled to an Agilent 6530 QTOF mass spectrometer.
For the quantitative data analysis, the Agilent Quantitative Analysis B.08.00 software (RRID:SCR_015040) was used. […] The concentration of the compound was determined by external matrix calibration using 6 calibration samples (1, 2.5, 5, 7.5, 10, and 12.5 µM). […] Carryover was determined by analyzing the blank sample directly after the highest calibration sample and comparing the determined peak areas. Recovery was calculated as the ratio between the spiked concentration of the recovery sample and the concentration calculated from the peak area of this sample.

The test system of data set [3] is neoplastic lesions. Details: method as in PMID 34168013. As to conditions: patients with pancreatic, breast, ovarian, or colorectal carcinomas ref 51; cited from earlier work.
Data set [4] is described as follows: PET/CT biodistribution of 68Ga-labeled tracers in HEK-FAP tumor-bearing mice. As to conditions: mouse, in vivo, 10 MBq IV, n=3. The protocol: as §1
Thirty megabecquerels (30 MBq/nmol) ^111In-FAP-2286 (n = 9) or ^111In-FAPI-04 (n = 6) was injected intravenously (IV) into HEK-FAP tumor-bearing mice and the distribution of the radiotracers was assessed using the NanoSPECT/computed tomography (CT) system (Mediso). […] For SPECT imaging of ^177Lu-labeled FAP-2286 or ^177Lu-labeled FAPI-46, 30 MBq was administered IV (30 MBq/nmol; n = 3) and the distribution of the radiotracers was assessed using the nanoScan SPECT/CT system (Mediso). […]
as §5

Data set [5] can be described thus: SPECT/CT biodistribution of 111In-labeled tracers in HEK-FAP tumor-bearing mice. As to conditions: mouse; for tissue uptake at 1 h / tissue uptake at 3 h / tissue uptake at 6 h / tissue uptake at 24 h / tissue uptake at 48 h: in vivo. Format: in vivo, mouse. As to the method:
as §1, §2, §3, §4, §5

For `CCCCCC(=O)N[C@H]1CSCc2cc(CSCCNC(=O)CN3CCN(CC(=O)O)CCN(CC(=O)O)CCN(CC(=O)O)CC3)cc(c2)CSC[C@@H](C(=O)O)NC(=O)[C@H](Cc2ccccc2)NC(=O)[C@H](CCC(N)=O)NC(=O)[C@H]([C@@H](C)O)NC(=O)[C@@H]2CCCN2C(=O)[C@@H]2CCCN2C1=O` [FAP-2286], in data set [1], the “fold higher TIAC compared to FAPI-46” value is listed as 12 fold and the “fold higher absorbed dose delivered to the tumors compared to FAPI-46” value is on record as 9 fold. The “percent retained in mouse plasma” value in data set [2] was determined as 85%.
Regarding `CCCCCC(=O)N[C@H]1CSCc2cc(CSCCNC(=O)CN3CCN(CC(=O)O)CCN(CC(=O)O)CCN(CC(=O)O)CC3)cc(c2)CSC[C@@H](C(=O)O)NC(=O)[C@H](Cc2ccccc2)NC(=O)[C@H](CCC(N)=O)NC(=O)[C@H]([C@@H](C)O)NC(=O)[C@@H]2CCCN2C(=O)[C@@H]2CCCN2C1=O` [^68Ga-FAP-2286, metal not drawn], in data set [3], the “PET/CT uptake in patients” value is “significant uptake in neoplastic lesions and low presence in normal tissues”. Also, in data set [4] (0.5 h after administration), the tissue uptake at 0.5 h was 9.8 %ID/g. This molecule came in with a tissue uptake at 3 h in data set [4] (3 h after injection) of 10.8 %ID/g.
Turning to `CCCCCC(=O)N[C@H]1CSCc2cc(CSCCNC(=O)CN3CCN(CC(=O)O)CCN(CC(=O)O)CCN(CC(=O)O)CC3)cc(c2)CSC[C@@H](C(=O)O)NC(=O)[C@H](Cc2ccccc2)NC(=O)[C@H](CCC(N)=O)NC(=O)[C@H]([C@@H](C)O)NC(=O)[C@@H]2CCCN2C(=O)[C@@H]2CCCN2C1=O` [^111In-FAP-2286, metal not drawn], the tissue to tissue ratio at 1 h in data set [5] (female, tumor and kidney, iv, 30 MBq, total radioactivity, tumor-to-kidney, 1 h p.i., read-out: T/K ratio (mean ± SD)) amounted to 3 ± 1.3. In addition, in data set [5] (female, tumor and kidney, iv, 30 MBq, total radioactivity, tumor-to-kidney, 3 h p.i., read-out: T/K ratio (mean ± SD)), the tissue to tissue ratio at 3 h stood at 4.6 ± 1.9. Moreover, the tissue to tissue ratio at 6 h in data set [5] (female, tumor and kidney, iv, 30 MBq, total radioactivity, tumor-to-kidney, 6 h p.i., read-out: T/K ratio (mean ± SD)) was determined as 5 ± 2.8. Besides, the tissue to tissue ratio at 24 h in data set [5] (female, tumor and kidney, iv, 30 MBq, total radioactivity, tumor-to-kidney, 24 h p.i., read-out: T/K ratio (mean ± SD)) stood at 5.9 ± 3.3. Besides, the tissue to tissue ratio at 48 h in data set [5] (female, tumor and kidney, iv, 30 MBq, total radioactivity, tumor-to-kidney, 48 h p.i., read-out: T/K ratio (mean ± SD)) is 7.5 ± 4.8. In addition, the tissue uptake at 1 h in data set [5] (1 h p.i., read-out: Salivary Glands %ID/g (mean ± SD)) was determined as 0.6 ± 0.4 %ID/g; in data set [5] (heart, 1 h p.i., read-out: Blood Pool Surrogate %ID/g (mean ± SD)), 0.4 ± 0.1 %ID/g; in data set [5] (iv, 1 h p.i., 30 MBq IV, HEK-FAP mice, n=9, read-out: Tumor %ID/g (mean ± SD)), 11.1 ± 4.3 %ID/g; in data set [5] (iv, 1 h p.i., 30 MBq IV, HEK-FAP mice, read-out: Kidney %ID/g (mean ± SD)), 3.9 ± 1 %ID/g; in data set [5] (iv, 1 h p.i., 30 MBq IV, HEK-FAP mice, read-out: Liver %ID/g (mean ± SD)), 0.3 ± 0.1 %ID/g; in data set [5] (non-tumor bearing shoulder, 1 h p.i., read-out: Shoulder %ID/g (mean ± SD)) it was 1.2 ± 0.6 %ID/g. For the same molecule, the tissue uptake at 3 h was 0.2 ± 0.1 %ID/g in data set [5] (3 h p.i., read-out: Salivary Glands %ID/g (mean ± SD)); 0.1 ± 0.1 %ID/g in data set [5] (heart, 3 h p.i., read-out: Blood Pool Surrogate %ID/g (mean ± SD)); 2.5 ± 0.4 %ID/g in data set [5] (iv, 3 h p.i., 30 MBq IV, HEK-FAP mice, read-out: Kidney %ID/g (mean ± SD)); 0.2 ± 0.1 %ID/g in data set [5] (iv, 3 h p.i., 30 MBq IV, HEK-FAP mice, read-out: Liver %ID/g (mean ± SD)); 0.4 ± 0.1 %ID/g in data set [5] (non-tumor bearing shoulder, 3 h p.i., read-out: Shoulder %ID/g (mean ± SD)). Moreover, the tissue uptake at 6 h in data set [5] (6 h p.i., read-out: Salivary Glands %ID/g (mean ± SD)) is 0.2 ± 0.2 %ID/g; in data set [5] (heart, 6 h p.i., read-out: Blood Pool Surrogate %ID/g (mean ± SD)) it was 0.1 %ID/g; in data set [5] (iv, 6 h p.i., 30 MBq IV, HEK-FAP mice, n=9, read-out: Tumor %ID/g (mean ± SD)), 11.4 ± 6.6 %ID/g; in data set [5] (iv, 6 h p.i., 30 MBq IV, HEK-FAP mice, read-out: Kidney %ID/g (mean ± SD)), 2.2 ± 0.3 %ID/g; in data set [5] (iv, 6 h p.i., 30 MBq IV, HEK-FAP mice, read-out: Liver %ID/g (mean ± SD)), 0.1 %ID/g; in data set [5] (non-tumor bearing shoulder, 6 h p.i., read-out: Shoulder %ID/g (mean ± SD)), 0.1 ± 0.1 %ID/g. Further, the tissue uptake at 24 h in data set [5] (iv, 24 h p.i., 30 MBq IV, HEK-FAP mice, n=9, read-out: Tumor %ID/g (mean ± SD)) amounted to 9.7 ± 5.3 %ID/g; in data set [5] (iv, 24 h p.i., 30 MBq IV, HEK-FAP mice, read-out: Kidney %ID/g (mean ± SD)), 1.6 ± 0.2 %ID/g; in data set [5] (iv, 24 h p.i., 30 MBq IV, HEK-FAP mice, read-out: Liver %ID/g (mean ± SD)), 0.1 %ID/g; in data set [5] (non-tumor bearing shoulder, 24 h p.i., read-out: Shoulder %ID/g (mean ± SD)), 0.1 %ID/g. For the same molecule, the tissue uptake at 48 h was 9.1 ± 5 %ID/g in data set [5] (iv, 48 h p.i., 30 MBq IV, HEK-FAP mice, n=9, read-out: Tumor %ID/g (mean ± SD)); 1.3 ± 0.2 %ID/g in data set [5] (iv, 48 h p.i., 30 MBq IV, HEK-FAP mice, read-out: Kidney %ID/g (mean ± SD)); 0.1 %ID/g in data set [5] (iv, 48 h p.i., 30 MBq IV, HEK-FAP mice, read-out: Liver %ID/g (mean ± SD)); 0.1 %ID/g in data set [5] (non-tumor bearing shoulder, 48 h p.i., read-out: Shoulder %ID/g (mean ± SD)).
